Test results reported in ChEMBL document CHEMBL5325437, “Shifting the selectivity of pyrido[2,3-d]pyrimidin-7(8H)-one inhibitors towards the salt-inducible kinase (SIK) subfamily” (Eur J Med Chem, 2023).
The source made the active and inactive calls. The rule behind the calls is not given here.

Legend:
SK-OV-3 [1] = test: Induction of cell cycle arrest in human SK-OV-3 cells assessed as accumulation of cells at interphase at 5 uM incubated for 24 hrs by flow cytometry; type: functional
[2] = Binding affinity to recombinant RSK1b (unknown origin) assessed as stabilization by measuring change in melting temperature at 10 uM by SYPRO orange dye based differential scanning fluorimetry assay; conditions: Homo sapiens
[3] = molecular target: Tyrosine-protein kinase ABL1 (Homo sapiens, UniProt P00519); test: Binding affinity to recombinant ABL1 (unknown origin) assessed as stabilization by measuring change in melting temperature at 10 uM by SYPRO orange dye based differential scanning fluorimetry assay
[4] = molecular target: Serine/threonine-protein kinase 24 (Homo sapiens) (UniProt Q9Y6E0); test: Binding affinity to recombinant MST3 (unknown origin) assessed as stabilization by measuring change in melting temperature at 10 uM by SYPRO orange dye based differential scanning fluorimetry assay
HCT-116 [5] = test: Cytotoxicity against human HCT-116 cells assessed as appearance of pyknosis nuclei at 10 uM incubated for 80 hrs by Hoechst-33342 staining high-content imaging analysis; type: toxicity, cell-based; conditions: hct-116, 80 h
[6] = molecular target: Serine/threonine-protein kinase 26 (Homo sapiens) (UniProt Q9P289); test: Binding affinity to recombinant MST4 (unknown origin) assessed as stabilization by measuring change in melting temperature at 10 uM by SYPRO orange dye based differential scanning fluorimetry assay
HCT-116 [7] = test: Cytotoxicity against human HCT-116 cells assessed as reduction in cell count at 1 uM incubated for >60 hrs by Hoechst-33342 staining high-content imaging analysis; type: toxicity, cell-based; conditions: hct-116, 60 h
[8] = molecular target: Mitogen-activated protein kinase 8 (Homo sapiens, UniProt P45983); test: Binding affinity to recombinant JNK1 (unknown origin) assessed as stabilization by measuring change in melting temperature at 10 uM by SYPRO orange dye based differential scanning fluorimetry assay
[9] = molecular target: Serine/threonine-protein kinase SIK2 (Homo sapiens) (UniProt Q9H0K1); test: Inhibition of SIK2 in human SK-OV-3 cells assessed as upregulation of PLK expression level at 5 uM incubated for 48 hrs by Western blotting analysis; type: cell-based
[10] = molecular target: Serine/threonine-protein kinase SIK2 (Homo sapiens) (UniProt Q9H0K1); test: Inhibition of recombinant human GST-tagged SIK2 assessed as downregulation of SIK2 phosphorylation at Ser358 incubated for 30 mins by Western blotting analysis
[11] = molecular target: Ephrin type-B receptor 3 (Homo sapiens) (UniProt P54753); test: Binding affinity to recombinant EPHB3 (unknown origin) assessed as stabilization by measuring change in melting temperature at 10 uM by SYPRO orange dye based differential scanning fluorimetry assay
Ephrin type-A receptor 4 = Ephrin type-A receptor 4 (Homo sapiens, UniProt P54764); test: Inhibition of full length NanoLuc fused EPHA4 (unknown origin) transfected in HEK293T cells using NanoBRET NanoGlo substrate incubated for 2 hrs in presence of tracer by NanoBRET assay; type: cell-based
[12] = Drug metabolism in Sprague-Dawley rat liver microsomes assessed as compound metabolized incubated for 60 mins in presence of NADPH by HPLC analysis; type: ADME, Microsome; conditions: 1 h
[13] = molecular target: Cyclin-G-associated kinase (Homo sapiens, UniProt O14976); test: Inhibition of full length NanoLuc fused GAK (unknown origin) transfected in HEK293T cells using NanoBRET NanoGlo substrate incubated for 2 hrs in presence of tracer by NanoBRET assay; type: cell-based
SK-OV-3 [14] = test: Induction of cell cycle arrest in human SK-OV-3 cells assessed as accumulation of cells at G1 phase at 5 uM incubated for 24 hrs by flow cytometry (reference value: 34%); type: functional

Sequence of Serine/threonine-protein kinase SIK2 (Homo sapiens) (Q9H0K1 whole entry, looked up): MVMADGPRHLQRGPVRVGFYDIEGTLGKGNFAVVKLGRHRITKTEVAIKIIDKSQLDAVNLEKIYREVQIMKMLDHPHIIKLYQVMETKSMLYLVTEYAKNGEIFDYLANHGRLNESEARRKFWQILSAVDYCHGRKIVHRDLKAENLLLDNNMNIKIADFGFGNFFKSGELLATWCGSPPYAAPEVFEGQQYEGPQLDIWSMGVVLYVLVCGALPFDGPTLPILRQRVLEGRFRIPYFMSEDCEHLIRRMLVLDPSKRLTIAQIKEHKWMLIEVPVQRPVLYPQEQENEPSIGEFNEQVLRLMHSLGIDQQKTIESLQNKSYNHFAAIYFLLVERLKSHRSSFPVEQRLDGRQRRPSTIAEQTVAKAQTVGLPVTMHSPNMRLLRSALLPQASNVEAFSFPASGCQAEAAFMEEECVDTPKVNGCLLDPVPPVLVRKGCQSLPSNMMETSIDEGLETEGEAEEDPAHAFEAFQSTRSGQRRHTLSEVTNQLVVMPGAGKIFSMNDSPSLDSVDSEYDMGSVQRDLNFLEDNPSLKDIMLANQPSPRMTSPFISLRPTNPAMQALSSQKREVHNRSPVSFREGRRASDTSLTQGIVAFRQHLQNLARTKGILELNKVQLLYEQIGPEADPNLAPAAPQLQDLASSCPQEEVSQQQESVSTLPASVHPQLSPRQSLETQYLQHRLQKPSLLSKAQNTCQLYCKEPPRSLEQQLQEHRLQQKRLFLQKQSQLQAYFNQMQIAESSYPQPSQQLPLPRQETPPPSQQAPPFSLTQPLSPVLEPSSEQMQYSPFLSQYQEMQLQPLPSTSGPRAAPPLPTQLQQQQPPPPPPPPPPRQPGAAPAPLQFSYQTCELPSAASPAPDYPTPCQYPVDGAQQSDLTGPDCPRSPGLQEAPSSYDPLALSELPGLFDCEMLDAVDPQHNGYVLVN
Sequence of Ephrin type-B receptor 3 (Homo sapiens) (P54753 whole entry, the tested form may be a part): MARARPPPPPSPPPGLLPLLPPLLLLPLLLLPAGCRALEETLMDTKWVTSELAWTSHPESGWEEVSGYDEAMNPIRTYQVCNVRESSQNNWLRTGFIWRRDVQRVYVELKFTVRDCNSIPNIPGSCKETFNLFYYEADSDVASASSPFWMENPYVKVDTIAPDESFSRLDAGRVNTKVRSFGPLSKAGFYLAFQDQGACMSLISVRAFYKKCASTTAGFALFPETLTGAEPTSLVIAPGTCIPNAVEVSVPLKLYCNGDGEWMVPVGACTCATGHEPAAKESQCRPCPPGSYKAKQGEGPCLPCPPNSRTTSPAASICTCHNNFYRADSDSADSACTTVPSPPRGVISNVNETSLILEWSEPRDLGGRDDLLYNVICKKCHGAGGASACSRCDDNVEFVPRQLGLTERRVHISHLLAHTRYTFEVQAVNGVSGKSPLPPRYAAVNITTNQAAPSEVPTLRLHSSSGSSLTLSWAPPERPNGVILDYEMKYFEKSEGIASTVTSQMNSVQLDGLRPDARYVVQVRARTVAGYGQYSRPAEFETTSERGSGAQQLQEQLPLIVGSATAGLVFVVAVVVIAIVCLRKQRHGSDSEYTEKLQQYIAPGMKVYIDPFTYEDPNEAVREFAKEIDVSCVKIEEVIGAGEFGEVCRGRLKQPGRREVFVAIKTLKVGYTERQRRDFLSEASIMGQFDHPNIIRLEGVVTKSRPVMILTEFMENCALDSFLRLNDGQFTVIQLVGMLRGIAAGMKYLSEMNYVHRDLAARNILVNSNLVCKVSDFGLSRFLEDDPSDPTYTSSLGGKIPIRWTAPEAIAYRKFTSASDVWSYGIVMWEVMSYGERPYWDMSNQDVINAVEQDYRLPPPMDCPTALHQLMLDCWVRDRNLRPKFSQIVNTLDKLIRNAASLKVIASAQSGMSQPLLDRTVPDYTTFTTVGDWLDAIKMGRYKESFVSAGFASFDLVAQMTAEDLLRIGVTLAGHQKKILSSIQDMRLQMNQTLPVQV
Sequence of Serine/threonine-protein kinase 26 (Homo sapiens) (Q9P289 2-416 limits assumed): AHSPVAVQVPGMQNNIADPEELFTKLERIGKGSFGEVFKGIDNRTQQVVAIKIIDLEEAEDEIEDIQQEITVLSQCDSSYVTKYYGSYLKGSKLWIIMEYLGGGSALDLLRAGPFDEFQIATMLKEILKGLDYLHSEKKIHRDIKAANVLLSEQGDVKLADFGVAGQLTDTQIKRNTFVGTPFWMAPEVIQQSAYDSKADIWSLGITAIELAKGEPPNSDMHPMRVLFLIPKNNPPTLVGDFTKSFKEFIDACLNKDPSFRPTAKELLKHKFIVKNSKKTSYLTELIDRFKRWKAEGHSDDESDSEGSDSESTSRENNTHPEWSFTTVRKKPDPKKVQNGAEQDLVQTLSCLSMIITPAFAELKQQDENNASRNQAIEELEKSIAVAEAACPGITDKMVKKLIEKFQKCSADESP
Sequence of Ephrin type-A receptor 4 (P54764 whole entry, the tested form may be a part): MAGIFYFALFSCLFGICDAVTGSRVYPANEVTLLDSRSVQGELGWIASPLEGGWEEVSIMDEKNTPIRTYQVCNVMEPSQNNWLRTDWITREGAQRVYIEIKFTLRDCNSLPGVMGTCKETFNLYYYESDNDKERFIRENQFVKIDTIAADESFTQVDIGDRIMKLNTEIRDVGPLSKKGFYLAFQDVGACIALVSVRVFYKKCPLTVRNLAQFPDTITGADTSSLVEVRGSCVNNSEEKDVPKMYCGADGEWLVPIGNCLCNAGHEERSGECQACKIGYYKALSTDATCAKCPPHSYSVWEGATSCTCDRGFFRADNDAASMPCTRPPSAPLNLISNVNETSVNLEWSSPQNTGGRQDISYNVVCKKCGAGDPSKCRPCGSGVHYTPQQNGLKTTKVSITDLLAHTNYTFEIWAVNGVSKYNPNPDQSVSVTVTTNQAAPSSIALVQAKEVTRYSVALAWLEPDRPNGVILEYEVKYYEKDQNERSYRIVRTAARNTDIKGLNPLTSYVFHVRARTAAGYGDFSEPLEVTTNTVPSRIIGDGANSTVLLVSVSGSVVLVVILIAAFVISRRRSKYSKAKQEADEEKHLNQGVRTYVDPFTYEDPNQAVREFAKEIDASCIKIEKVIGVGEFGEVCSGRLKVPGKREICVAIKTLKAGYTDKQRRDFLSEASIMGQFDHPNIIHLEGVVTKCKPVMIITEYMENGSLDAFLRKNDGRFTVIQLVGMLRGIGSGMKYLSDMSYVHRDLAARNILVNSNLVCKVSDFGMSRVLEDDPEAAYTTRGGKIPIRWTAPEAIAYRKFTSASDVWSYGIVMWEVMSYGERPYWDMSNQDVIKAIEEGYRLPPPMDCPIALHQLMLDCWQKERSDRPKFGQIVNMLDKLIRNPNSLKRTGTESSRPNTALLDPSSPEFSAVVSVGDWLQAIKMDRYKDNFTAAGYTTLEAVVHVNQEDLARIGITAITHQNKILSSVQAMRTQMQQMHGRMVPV
Sequence of Serine/threonine-protein kinase 24 (Homo sapiens) (Q9Y6E0 whole entry, looked up): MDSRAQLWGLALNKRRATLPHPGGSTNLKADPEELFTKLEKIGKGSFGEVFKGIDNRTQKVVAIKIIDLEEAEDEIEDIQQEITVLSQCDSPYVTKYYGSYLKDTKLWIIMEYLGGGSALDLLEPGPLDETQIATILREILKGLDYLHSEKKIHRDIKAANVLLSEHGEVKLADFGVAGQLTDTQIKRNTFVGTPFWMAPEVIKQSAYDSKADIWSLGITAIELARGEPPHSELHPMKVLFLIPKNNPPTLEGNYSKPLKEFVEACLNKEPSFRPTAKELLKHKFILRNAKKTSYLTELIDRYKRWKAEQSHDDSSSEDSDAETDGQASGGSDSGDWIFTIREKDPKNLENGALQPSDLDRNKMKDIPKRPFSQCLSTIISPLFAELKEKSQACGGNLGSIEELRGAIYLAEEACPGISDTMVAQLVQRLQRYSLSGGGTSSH
Sequence of Mitogen-activated protein kinase 8 (P45983 whole entry): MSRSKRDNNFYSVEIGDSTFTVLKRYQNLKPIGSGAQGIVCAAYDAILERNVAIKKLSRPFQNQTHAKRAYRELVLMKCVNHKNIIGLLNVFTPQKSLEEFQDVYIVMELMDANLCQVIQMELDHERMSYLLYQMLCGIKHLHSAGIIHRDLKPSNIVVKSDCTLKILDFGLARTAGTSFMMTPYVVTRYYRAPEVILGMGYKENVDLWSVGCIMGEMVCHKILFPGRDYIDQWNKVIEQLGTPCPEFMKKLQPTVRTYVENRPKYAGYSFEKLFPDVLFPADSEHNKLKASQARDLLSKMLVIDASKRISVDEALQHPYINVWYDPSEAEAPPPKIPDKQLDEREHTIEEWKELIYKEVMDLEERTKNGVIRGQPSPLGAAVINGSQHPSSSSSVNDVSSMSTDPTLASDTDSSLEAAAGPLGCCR

With `CNc1ncc2cc(-c3cc(F)ccc3F)c(=O)n(CCCCN)c2n1` as the molecule, how does the Activity (SK-OV-3 [1]) read?
The Activity was 69%.

What about the ΔTm [2] of the same molecule?
The ΔTm was 15.1 °C.

And the ΔTm [3]?
The ΔTm was 7.4 °C.

What about the ΔTm [4] of the same molecule?
The ΔTm was 1.5 °C.

What about the Activity (HCT-116 [5]) of the same molecule?
Its Activity is 30%.

What about the ΔTm [6] of the same molecule?
The ΔTm was 0.9 °C.

And the Activity (HCT-116 [7])?
The Activity was “Toxic”.

And the ΔTm [8]?
Its ΔTm is 7.3 °C.

And the inhibition [9]?
Its inhibition is “Active”.

And the inhibition [10]?
Its inhibition is “Dose-Dependent Effect”.

What about the ΔTm [11] of the same molecule?
The ΔTm was 5.6 °C.

What about the IC50 (Ephrin type-A receptor 4) of the same molecule?
The IC50 was 1.6 µM.

What about the Drug metabolism [12] of the same molecule?
The Drug metabolism was “Metabolite_Detected”.

And the IC50 [13]?
Its IC50 is 33.8 µM.

And the Activity (SK-OV-3 [14])?
Its Activity is 50%.
